For data set [1], the system named is PC43-10 cells (hRFC-expressing Chinese hamster ovary). Kind of data set: Growth inhibition of hRFC-expressing PC43-10 CHO cells. The format is cell-based.
The test system of data set [2] is R2 CHO cells (hRFC- and FR-null). The data set is described as follows: Growth inhibition of hRFC- and FR-null R2 CHO cells. The format is cell-based, Chinese hamster. The settings on record: Cricetulus griseus, RPMI1640/10% dialyzed fetal bovine serum, mean of 2-3 experiments.
The subject of data set [3] is RT16 cells (hFRα-expressing Chinese hamster ovary). The data set is described as follows: Growth inhibition of FR-expressing RT16 CHO cells, with or without folic acid. It counts as cell-based. The conditions noted are these: for IC50: Cricetulus griseus, RT16.
Data set [4] relates to KB human tumor cells (hRFC/FRα). Kind of data set: Growth inhibition of KB human tumor cells (Cell Titer-blue cytotoxicity screen), with or without folic acid. The format is cell-based. For orientation: Resazurin is reduced to fluorescent resorufin, in cell work by metabolically active cells.
Data set [5] deals with T1, GARFTase (Homo sapiens, UniProt P22102).
T1 construct: In the in situ GARFTase assay, incorporation of ^14C-glycine into formyl glycinamide ribonucleotide was measured; endogenous in cells
T1 sequence (P22102 1-1010): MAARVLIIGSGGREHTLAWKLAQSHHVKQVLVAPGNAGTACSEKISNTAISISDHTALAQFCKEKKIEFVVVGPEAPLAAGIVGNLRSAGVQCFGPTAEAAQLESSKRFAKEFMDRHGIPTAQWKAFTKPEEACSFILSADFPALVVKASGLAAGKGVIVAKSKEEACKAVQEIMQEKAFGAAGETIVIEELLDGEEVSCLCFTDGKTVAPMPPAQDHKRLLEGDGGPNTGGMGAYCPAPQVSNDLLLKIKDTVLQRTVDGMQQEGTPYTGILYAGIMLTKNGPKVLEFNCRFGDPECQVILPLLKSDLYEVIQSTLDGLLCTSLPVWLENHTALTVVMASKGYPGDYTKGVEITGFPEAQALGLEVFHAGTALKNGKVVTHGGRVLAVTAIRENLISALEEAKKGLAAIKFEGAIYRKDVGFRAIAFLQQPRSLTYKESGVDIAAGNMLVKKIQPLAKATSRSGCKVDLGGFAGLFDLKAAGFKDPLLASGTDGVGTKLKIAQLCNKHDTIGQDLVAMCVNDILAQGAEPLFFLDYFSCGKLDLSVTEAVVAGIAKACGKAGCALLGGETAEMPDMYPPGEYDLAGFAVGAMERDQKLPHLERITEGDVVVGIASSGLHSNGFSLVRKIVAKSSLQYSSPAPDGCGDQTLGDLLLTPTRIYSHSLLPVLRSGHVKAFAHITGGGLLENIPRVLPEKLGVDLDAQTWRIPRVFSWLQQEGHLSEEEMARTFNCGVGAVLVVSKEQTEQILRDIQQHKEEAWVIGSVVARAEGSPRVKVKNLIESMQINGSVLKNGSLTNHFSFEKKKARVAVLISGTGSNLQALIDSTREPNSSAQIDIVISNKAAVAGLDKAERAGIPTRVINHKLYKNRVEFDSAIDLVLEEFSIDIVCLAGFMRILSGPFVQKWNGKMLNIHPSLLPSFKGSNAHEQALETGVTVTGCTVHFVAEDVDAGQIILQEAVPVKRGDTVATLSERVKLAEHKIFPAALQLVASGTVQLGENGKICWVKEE
Kind of data set: In situ GARFTase assay (14C-glycine incorporation into formyl glycinamide ribonucleotide). The format is cell-based. The settings on record: mean IC50, SEM in parentheses.

Data set [6] has as its target T2, purified recombinant mouse GARFTase (Mus musculus, UniProt Q64737).
T2 sequence (Q64737 2-1010 limits assumed): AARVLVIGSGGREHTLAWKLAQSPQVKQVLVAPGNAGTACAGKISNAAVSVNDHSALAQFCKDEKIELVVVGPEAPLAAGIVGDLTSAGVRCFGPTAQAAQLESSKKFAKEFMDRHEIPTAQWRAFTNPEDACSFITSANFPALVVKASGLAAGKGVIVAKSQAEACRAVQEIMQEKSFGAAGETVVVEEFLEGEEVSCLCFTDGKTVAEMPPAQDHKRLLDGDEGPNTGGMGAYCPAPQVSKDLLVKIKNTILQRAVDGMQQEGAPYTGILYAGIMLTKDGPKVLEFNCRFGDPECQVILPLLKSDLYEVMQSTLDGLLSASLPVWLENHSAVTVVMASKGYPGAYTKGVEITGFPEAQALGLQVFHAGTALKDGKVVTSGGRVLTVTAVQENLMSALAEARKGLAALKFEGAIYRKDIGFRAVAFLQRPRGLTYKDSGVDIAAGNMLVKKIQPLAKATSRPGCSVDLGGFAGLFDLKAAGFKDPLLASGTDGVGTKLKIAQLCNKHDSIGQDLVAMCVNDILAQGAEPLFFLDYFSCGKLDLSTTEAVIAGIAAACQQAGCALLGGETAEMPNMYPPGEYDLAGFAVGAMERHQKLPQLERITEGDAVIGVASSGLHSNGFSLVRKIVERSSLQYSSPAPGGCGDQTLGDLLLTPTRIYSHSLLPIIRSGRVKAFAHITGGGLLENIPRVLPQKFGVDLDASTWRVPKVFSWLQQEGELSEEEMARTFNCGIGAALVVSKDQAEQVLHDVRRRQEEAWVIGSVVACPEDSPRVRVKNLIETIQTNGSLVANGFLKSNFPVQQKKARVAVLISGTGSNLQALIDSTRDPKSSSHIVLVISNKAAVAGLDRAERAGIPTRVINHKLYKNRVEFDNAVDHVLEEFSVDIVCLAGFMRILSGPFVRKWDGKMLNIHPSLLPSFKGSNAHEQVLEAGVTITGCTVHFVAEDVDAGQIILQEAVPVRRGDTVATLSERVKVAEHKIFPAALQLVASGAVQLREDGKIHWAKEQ
The data set is described as follows: In vitro GARFTase inhibition assay. The format is biochemical. The conditions noted are these: purified recombinant mouse GARFTase; mean IC50, SEM in parentheses.

The target in data set [7] is FRα (Homo sapiens, UniProt P15328). Kind of data set: FRα binding affinity relative to folic acid. The settings on record: folic acid set to 1.
Data set [8] concerns the target thymidylate synthase (TS) (Homo sapiens, UniProt P04818). The conditions noted are these: cited from earlier work.
The conditions of data set [9]: mouse, in vivo; cited from earlier work.
Data set [10] concerns R2/VC cells (vector control R2 CHO). Kind of data set: Growth inhibition of vector control R2 CHO cells (Cell TiterBlue, 96 h). It counts as cell-based, Chinese hamster. The conditions noted are these: Cricetulus griseus, read-out: Growth inhibition 50% inhibitory concentration, R2/VC.
For data set [11] the following is noted: in vivo; cited from earlier work.
[12] abbreviates: Homo sapiens, RPMI1640/10% dialyzed fetal bovine serum, without folic acid, read-out: Growth inhibition (IC50, nM) hRFC/FRα KB.
[13] abbreviates: folate-free RPMI1640/10% dialyzed FBS, 25 nM leucovorin.

Like-named read-outs stand apart in the source and are kept apart here.

Sequence of thymidylate synthase (TS) (P04818 whole entry, species assumed): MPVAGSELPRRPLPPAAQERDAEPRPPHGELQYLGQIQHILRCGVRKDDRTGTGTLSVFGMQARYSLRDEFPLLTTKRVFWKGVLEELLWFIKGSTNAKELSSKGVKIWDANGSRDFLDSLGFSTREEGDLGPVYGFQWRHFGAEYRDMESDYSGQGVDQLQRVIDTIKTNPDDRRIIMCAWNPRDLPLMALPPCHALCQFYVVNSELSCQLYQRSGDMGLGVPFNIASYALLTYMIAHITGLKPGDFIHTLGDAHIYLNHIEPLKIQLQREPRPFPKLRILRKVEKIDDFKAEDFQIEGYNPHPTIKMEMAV
Sequence of FRα (P15328 25-234): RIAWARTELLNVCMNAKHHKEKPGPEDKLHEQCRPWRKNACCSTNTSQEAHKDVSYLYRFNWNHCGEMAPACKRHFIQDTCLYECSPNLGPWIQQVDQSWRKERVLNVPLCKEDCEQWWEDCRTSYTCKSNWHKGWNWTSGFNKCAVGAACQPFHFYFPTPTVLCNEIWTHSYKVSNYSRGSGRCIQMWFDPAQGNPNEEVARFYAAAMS

For the compound `Nc1nc2[nH]c(CCCCCc3ccc(C(=O)N[C@@H](CCC(=O)O)C(=O)O)s3)cc2c(=O)[nH]1` [AAG154360, (S)-2-({5-[5-(2-amino-4-oxo-4,7-dihydro-3H-pyrrolo[2,3-d]pyrimidin-6-yl)-pentyl]-thiophene-2-carbonyl}-amino)-pentanedioic acid], the IC50 in data set [1] (Cricetulus griseus, PC43-10, RPMI1640/10% dialyzed fetal bovine serum, mean of 2-3 experiments, read-out: Growth inhibition (IC50, nM) hRFC PC43-10) was more than 1000 nM; in data set [2], more than 1000 nM; in [3] (RPMI1640/10% dialyzed fetal bovine serum, without folic acid, read-out: Growth inhibition (IC50, nM) hFRα RT16), 2 nM; in data set [3] (in the presence of an elevated concentration of folic acid, read-out: Growth inhibition (IC50, nM) hFRα RT16 (+FA)), more than 1000 nM; in data set [4] (setting [12]), 3.4 nM; in [4] (Homo sapiens, co-treatment with folic acid (200 nM), read-out: Growth inhibition (IC50, nM) hRFC/FRα KB (+FA)) it was more than 1000 nM. Further, the IC50 in [5] came out at 7.65 nM; in data set [6] it was 3310 nM. Moreover, the “Growth inhibition of hRFC-expressing PC43-10 cells (in words)” value in data set [1] (only RFC) is “Neither AAG154353 and AAG154360 showed appreciable growth inhibition”. For the same compound, the “Growth inhibition / FR-targeted activity toward RT16 cells (in words)” value in data set [3] (cells expressing FRα) is on record as “high level of FR-targeted activity”. The “Effect of folic acid co-treatment on growth inhibition of KB cells” value in data set [4] (folic acid 200 nM) was “completely reversed growth inhibition”. Also, in [7], the “FRα binding affinity compared to folic acid” value is listed as “very high binding affinities”.
The melting point is the temperature of the solid-liquid transition. Regarding `Nc1nc2[nH]c(CCC#Cc3ccc(C(=O)N[C@@H](CCC(=O)O)C(=O)O)s3)cc2c(=O)[nH]1` [AAG154468, (S)-2-({5-[4-(2-amino-4-oxo-4,7-dihydro-3H-pyrrolo[2,3-d]pyrimidin-6-yl)-but-1-ynyl]-thiophene-2-carbonyl}-amino)-pentanedioic acid], the melting point lay in the range of 196 to 197 °C. Moreover, the IC50 in data set [4] (setting [12]) turned out to be 122 nM.
With `Nc1nc2[nH]c(CCCCc3ccc(C(=O)N[C@@H](CCC(=O)O)C(=O)O)o3)cc2c(=O)[nH]1` [AAG154489, (S)-2-({5-[4-(2-amino-4-oxo-4,7-dihydro-3H-pyrrolo[2,3-d]pyrimidin-6-yl)-butyl]-furan-2-carbonyl}-amino)-pentanedioic acid], in data set [4] (setting [12]), the IC50 came to 0.3 nM.
Take `C#CCN(c1ccc(C(=O)N[C@@H](CCC(=O)N[C@H](CCC(=O)O)C(=O)O)C(=O)O)cc1)[C@H]1CCc2cc3nc(C)[nH]c(=O)c3cc21` [BGC638]: in [8], the “Inhibition of thymidylate synthase (TS) within cells” value was “potently inhibit”.
Regarding `C#CCN(c1ccc(C(=O)N[C@@H](CCC(=O)N[C@H](CCC(=O)O)C(=O)O)C(=O)O)cc1)[C@H]1CCc2cc3nc(CO)[nH]c(=O)c3cc21` [BGC945], the “Inhibition of thymidylate synthase (TS) within cells” value in data set [8] was “potently inhibit”. Besides, the “Toxicity to normal tissues in mice” value in data set [9] is recorded as “no toxicity to normal tissues”.
For `Cc1nc2ccc3ccc(CNc4ccc5c(c4)CN([C@@H](CCC(=O)O)C(=O)O)C5=O)cc3c2c(=O)[nH]1` [GW1843U89, reference compound], the IC50 in data set [4] (RPMI1640/10% dialyzed fetal bovine serum, without folic acid, read-out: Growth inhibition (IC50, nM) hRFC/FRα KB) turned out to be 5.8 nM; in [4] (co-treatment with folic acid (200 nM), read-out: Growth inhibition (IC50, nM) hRFC/FRα KB (+FA)), 32 nM.
Turning to `Nc1nc2c(c(=O)[nH]1)C[C@@H](CCc1ccc(C(=O)N[C@@H](CCC(=O)O)C(=O)O)cc1)CN2` [Lometrexol, lometrexol, reference compound], the IC50 in data set [10] was more than 1000 nM; in data set [6] it was 780 nM. Moreover, the “Toxicity in phase 1 studies” value in [11] is reported as “severe myelosupression”.
For `CN(Cc1cnc2nc(N)nc(N)c2n1)c1ccc(C(=O)N[C@@H](CCC(=O)O)C(=O)O)cc1` [Methotrexate, methotrexate], the IC50 in [10] (setting [13]) was more than 1000 nM.
Consider `Nc1nc2[nH]cc(CCc3ccc(C(=O)N[C@@H](CCC(=O)O)C(=O)O)cc3)c2c(=O)[nH]1` [Pemetrexed, pemetrexed, reference compound], for which the IC50 in [10] amounted to 150 ± 22.5 nM.
On to `Cc1nc2ccc(CN(C)c3ccc(C(=O)N[C@@H](CCC(=O)O)C(=O)O)s3)cc2c(=O)[nH]1` [Raltitrexed, raltitrexed, reference compound], for which the IC50 in data set [10] (setting [13]) came to 604 ± 53.6 nM.
